Measured values from patent US8182844B2, “Use of Clerodendrum sp. for treating tic disorders or psychiatric disorders with sensorimotor gating deficits” (priority 2010, dated 2012).

Experiments:
[1] = test system: chronic motor tic disorder; assay: Case report: effect on tics in a child with chronic motor tic disorder; type: in vivo, human; conditions: single patient, before taking the leaf extract
Procedure: Withholding all medications for 1 day, they received examination of catecholamine metabolites in the cerebrospinal fluid.
Subsequently, this patient, started to take the extract of the grounded leaves of Clerodendrum inerme, which was prepared by mixing the leaves with water by a blender and collecting the juice after filtration as resulted. […] Honey was added because of the bitter taste. […] The follow-up IQ test had been arranged, but the patient was absent on the examination day.
This patient followed up regularly in NTUH pediatric outpatient clinic for their seizure problem.

[2] = test system: methamphetamine-induced PPI disruption in mice; assay: Methamphetamine-induced disruption of prepulse inhibition of the startle response (PPI), dopamine hypothesis model; type: in vivo, mouse
Source text: PPI is a neurophysiological phenomenon that the startle response to a stimulus, which could be a sound, an airpuff or a light, is inhibited if a stimulus with the same source but at weaker intensity prior to the stimulus was applied within a short interval. This is a fast neuroadaptative system to protect the living organisms from startle stimulation. It is believed to be a processing protection in a living organism that PPI serves as a sensorimotor gating, a pre-conscious regulator of attention, to reduce the startle response which is harmful to the information professing. […] PPI can be assessed by the motor response in either humans (measuring the eyeblink response by electromyograph) or animals (measuring the startle response).
Mice were i.p. injected by methamphetamine (2 mg/kg) to induce PPI disruption, as a schizophrenia model based on dopamine hypothesis. PPI was measured using the SR-LAB Startle Response System (San Diego Instrument, San Diego, Calif.). […] In the startle-alone trials, the basic auditory startle was measured, and in the prepulse-plus-startle trials, the amount of inhibition of normal startle induced by the prepulse was measured and expressed as a percentage of the basic startle. In the prepulse-alone trials, the normal response to a weak noise was measured as a control.

## CCCN1C[C@H](CSC)C[C@@H]2c3cccc4[nH]cc(c34)C[C@H]21 [pergolide]
[1]
  effect of earlier anti-tic medications on the involuntary movements of the patient: without success

## Clc1cccc(Cl)c1N=C1NCCN1 [clonidine]
[1]
  effect of earlier anti-tic medications on the involuntary movements of the patient: without success

## CN1C(=O)CN=C(c2ccccc2)c2cc(Cl)ccc21 [diazepam]
[2]; diazepam, dose not given, methamphetamine 2 mg/kg, FIG. 2B
  rescue of methamphetamine-induced PPI disruption: did not rescue
[1]
  effect of earlier anti-tic medications on the involuntary movements of the patient: in vain

## biperidal
[1]
  effect of earlier anti-tic medications on the involuntary movements of the patient: without success

## O=C(CCCN1CCC(O)(c2ccc(Cl)cc2)CC1)c1ccc(F)cc1 [haloperidol]
[1]
  effect of earlier anti-tic medications on the involuntary movements of the patient: in vain

## Cc1nc2n(c(=O)c1CCN1CCC(c3noc4cc(F)ccc34)CC1)CCCC2 [Risperidone]
[1]
  effect of earlier anti-tic medications on the involuntary movements of the patient: in vain

## CN[C@@H](C)Cc1ccccc1 [methamphetamine]
[2]; methamphetamine 2 mg/kg i.p. alone, without extract, 71 db prepulse, control mice 55.6±3.5%
  PPI (inhibition of startle response to 115 db by prepulse): 42.4±4.1%

## CCN1CCCC1CNC(=O)c1cc(S(N)(=O)=O)ccc1OC (stereo not drawn) [sulpiride]
[1]
  effect of earlier anti-tic medications on the involuntary movements of the patient: without success
